Laboratory results: US20260206828A1, “CONSTITUENT MEMBER PERFUMED BY FLAVOR RAW MATERIAL AND SMOKING ARTICLE” (Japan Tobacco Inc., priority 2022, published 2026)

Key:
[1] = Retention index (RI) measurement by GC/MS; assay type: physicochemical; conditions: HP-5 MS column (95% dimethylpolysiloxane/5% phenyl-methylpolysiloxane), 1000 ppm in ethanol, n-alkane mixture C6-C35, linear method
Method: Menthol (L-Menthol, manufactured by Takasago International Corporation) and cooling sensation agents (the abovementioned COOLACT® 370, COOLACT® 5, COOLACT® 10, COOLACT® 20, Symcool® WS-5, and Symcool® WS-23) were respectively diluted by adding ethanol to obtain diluted solutions of menthol and each cooling sensation agent diluted to 1000 ppm in ethanol.
Gas chromatography with a mass spectrometer (GC/MS) was then performed on the abovementioned diluted solutions thus obtained.
• Apparatus: 7890B/5977B GC/MSD, manufactured by Agilent Technologies GC conditions • Column: HP-5 MS (manufactured by Agilent Technologies) • Inner diameter 0.25 mm×length 30 m, film thickness 0.25 μm • Injection volume: 1 μL • Injection mode: Split (10:1) • Injection port temperature: 270° C. • Septum purge flow: 5 ml/minute • Carrier gas: Helium (He) • Column flow rate: 1 mL/minute (constant flow mode) • Oven temperature: From 40° C. (3 minutes) to 280° C. (20 minutes) at a rate of 4° C./minute • Transfer line temperature: 280° C. MS conditions • Solvent wait time: 4 minutes • Ionization method: Electron impact ionization (EI), 70 eV • Ion source temperature: 230° C. • Quadrupole temperature: 150° C. • Measurement mode: Scan • MS scan range: m/z 26-450 • Threshold: 50 • Sampling rate: 2
The chromatogram retention index (RI) obtained by the abovementioned GC/MS analysis was calculated by the following method.
The RI of menthol or respective cooling agent was calculated by a linear method on the basis of an n-alkane mixture ranging from n-hexane (C6, RI: 600) to n-pentatriacontane (C35, RI: 3500) Note that the n-alkane mixture used in calculating the RI is not limited thereto.

[2] = Storage resistance by GC/MS: residual rate in tobacco filler in an open system; assay type: physicochemical; conditions: 5,000 ppm in tobacco filler, open system on a tray, 5 days in an incubator, internal standard quinoline
Method: Solutions were prepared by dissolving menthol and other cooling agents (the abovementioned COOLACT® 370 and Symcool® WS-23) respectively through addition of ethanol thereto. Each solution thus obtained was added to the tobacco filler portion of a combustion smoking article, using a microsyringe (MS-50, Ito Microsyringe, manufactured by Ito Seisakusho), such that that the content of menthol or other cooling sensation agent was 5,000 ppm relative to the weight of the tobacco, and the samples immediately after addition were considered to be “pre-storage cigarette samples.” Each solution thus obtained was also added to the tobacco filler portion of a heat-not-burn smoking article (a tobacco stick comprising a tobacco filler portion and a filter portion), using the abovementioned microsyringe, such that that the menthol or other cooling sensation agent content was 5,000 ppm relative to the weight of the tobacco therein, and the samples immediately after addition were considered to be “pre-storage tobacco stick samples.” The cigarettes and tobacco sticks injected with menthol or other cooling sensation agent were then placed on a tray (DT-1 disposable tray, manufactured by As One), stored for 5 days in an incubator (SCI-13 compact incubator, manufactured by Shibata), and were respectively considered to be “post-storage cigarette samples” and “post-storage tobacco stick samples.”
In addition, 1.0 g of quinoline was precisely weighed out as an internal standard, and diluted to 1 L with methanol to serve as an extraction solvent.
The pre-storage cigarette samples, pre-storage tobacco stick samples, post-storage cigarette samples, and post-storage tobacco stick samples obtained as described above then underwent the following treatment. • The tobacco filler portion was removed from each sample and placed in a screw tube, and 10 mL of the extraction solvent, prepared as described above, was added. The screw tubes were then shaken at 200 rpm for 20 minutes, and, after having been left to stand overnight, shaken again at 200 rpm for 20 minutes to obtain tobacco filler portion extract samples. The extract samples obtained from the pre-storage cigarette samples, pre-storage tobacco stick samples, post-storage cigarette samples, and post-storage tobacco stick samples were respectively considered to be “pre-storage cigarette extract samples,” “pre-storage tobacco stick extract samples,” “post-storage cigarette extract samples,” and “post-storage tobacco stick extract samples.”
The extract samples thus obtained were each collected using a syringe (25 mL, SS-02SZ, manufactured by Terumo Corporation) and filtered through a filter (0.45 μm, Prem Syringe Filter, RC, manufactured by Agilent Technologies), and the liquids obtained after filtration were respectively considered to be extract samples for pre-storage cigarette analysis, extract samples for pre-storage tobacco stick analysis, extract samples for post-storage cigarette analysis, and extract samples for post-storage tobacco stick analysis.
The target ions and qualifier ions shown below were selected for the respective cooling sensation agents. A target ion and qualifier ion were also selected for quinoline, used as the internal standard. • Menthol (target ion: m/z=95.1, qualifier ion: m/z=71.0, 81.1) • […] (target ion: m/z=114.0, qualifier ion: m/z=57.0, 102.0) • COOLACT® 370 (target ion: m/z=211.2, qualifier ion: m/z=97.0, 168.1) • Quinoline (target ion: m/z=129.1, qualifier ion: m/z=76.0, 102.0)
• Column: HP-5 MS (manufactured by Agilent Technologies), inner diameter 0.25 mm×length 30 m, film thickness 0.25 μm • Injection volume: 1 μL • Injection mode: Split (10:1) • Injection port temperature: 270° C. • Septum purge flow rate: 5 mL/minute • Carrier gas: Helium (He) • Column flow rate: 1 ml/minute (constant flow mode) • Oven: 40° C. (for 3 minutes) to 280° C. (for 10 minutes) at 10° C./minute […]

[3] = Storage resistance by GC/MS: migration from tobacco filler to filter in a closed system; assay type: physicochemical; conditions: tobacco sticks, 2,500, 5,000 and 10,000 ppm
Method: A solution was prepared by dissolving a methyl menthol derivative (the abovementioned COOLACT® 370) through addition of methanol thereto. The solution thus obtained was added using the microsyringe described above to the tobacco filler of portion of an unheated smoking article (a tobacco stick comprising a tobacco filler portion and a filter portion), using the abovementioned microsyringe, such that the methyl menthol derivative content was 2,500 ppm, 5,000 ppm, or 10,000 ppm relative to the weight of tobacco therein, and the samples immediately after addition were considered to be “pre-storage tobacco stick samples.” Each tobacco stick injected with the methyl menthol derivative was placed in a Lami-Zip bag (AL-5, manufactured by Seisannipponsha), and left in an incubator (an SCI-13 compact incubator, manufactured by Shibata) for 5 days to provide a “post-storage tobacco stick sample.”
The pre-storage and post-storage tobacco stick samples obtained in the abovementioned manner underwent the following processing. • The tobacco filler portion and filter portion were removed from each sample and placed in a separate screw tube, and 10 mL of methanol were added. […]

[4] = Preliminary study of cooling sensation intensity; assay type: in vivo; conditions: similar contents
Source text: Whereas the content of the methyl menthol derivative or cooling agent other than a methyl menthol derivative as a cooling ingredient was 2000 ppm in the abovementioned Examples 1-3 and in Comparative Examples 2 and 4, the content of the cooling ingredient menthol in the abovementioned Comparative Examples 1 and 3 was set to 5,000 ppm, thus adjusting the cooling sensation intensity as much as possible to facilitate comparison, in order to assess cooling sensation intensity in the present sensory evaluation.

[5] = cigarettes (combustion smoking articles)
[6] = tobacco sticks (heat-not-burn smoking articles)

Compound	Retention index (RI) [1]	Residual rate [2, 5]	Residual rate [2, 6]	Migration from tobacco filler portion to filter portion, post-storage ([3]; closed system (Lami-Zip bag), 5 days in an incubator, FIGS. 10-12)	Migration from tobacco filler portion to filter portion, pre-storage ([3]; immediately after addition, GC/MS total ion chromatograms, FIGS. 7-9)	Cooling sensation intensity compared with methyl menthol derivatives and other cooling agents [4]
CC1CCC(C(C)C)C(OCC(O)CO)C1 [COOLACT® 10, 3-L-menthoxypropane-1,2-diol]	1674	–	–	–	–	–
CNC(=O)C(C)(C(C)C)C(C)C [Symcool® WS-23, 2-isopropyl-N,2,3-trimethylbutyramide]	1287	33.5%	50.2%	–	–	–
CC(O)CC(=O)O[C@@H]1C[C@H](C)CC[C@H]1C(C)C (stereo partly drawn) [COOLACT® 20, L-menthyl-3-hydroxybutyrate]	1611	–	–	–	–	–
CC(C)[C@@H]1CC[C@@H](C)C[C@H]1OCCO [COOLACT® 5, 2-L-menthoxyethanol]	1414	–	–	–	–	–
CC(C)C1CCC(C)(C)CC1C(=O)NCC(O)c1ccccc1 (stereo not shown) [COOLACT® 370, N-(2-hydroxy-2-phenylethyl)-2-isopropyl-5,5-dimethylcyclohexane-1-carboxamide]	2477	98.5%	100%	had not migrated from the tobacco filler portion to the filter portion	did not migrate from the tobacco filler portion to the filter portion	–
CCOC(=O)CNC(=O)C1CC(C)CCC1C(C)C (stereo not shown) [Symcool® WS-5, ethyl-2-(p-menthane-3-carboxamido)acetate]	1942	–	–	–	–	–
CC1CCC(C(C)C)C(O)C1 (stereo not shown) [Menthol]	1173	15.9%	10.4%	–	–	weaker cooling sensation intensity
